Measured values reported in patent US8895317B2, “Reagent for measuring active nitrogen” (The University of Tokyo, priority 2008, dated 2014).

Key:
[1] = Fluorescence quantum yield; type: physicochemical; conditions: triazole compound at a physiological pH
Text: (§1) Therefore, use of DCl-DA Cal enables observation of intracellular reactive nitrogen species over such a long period of time that cannot be achieved by conventional fluorescent probes for measuring reactive nitrogen.

[2] = Stability under physiological conditions; type: physicochemical
Text: as §1

fluorescence quantum yield Φf [1]: 0.63 | stability under physiological conditions [2]: stable under physiological conditions
SMILES: O=C(O)CN(CC(=O)O)Cc1c2oc3c(CN(CC(=O)O)CC(=O)O)c(O)c(Cl)cc3c(-c3ccc4[nH]nnc4c3C(=O)O)c-2cc(Cl)c1=O [triazole compound]
